# Reference: patent publication US12655104B2, “Anticancer compounds selective for ER-positive cancers” (THE BOARD OF TRUSTEES OF THE UNIVERSITY OF ILLINOIS, priority 2020, dated 2026)
# Like-named read-outs stand apart in the source and are kept apart here.
# Experiments:
# MDA-MB-231 = assay: Alamar blue fluorescence viability (IC50), MDA-MB-231; type: cell-based; settings: for IC50: Homo sapiens
# Experimental: (§1) Cancer Cell Lines: Culturing Conditions and Validation. All cell lines were cultured at 37° C. with 5% CO2. All ERα-positive cell lines were grown in media lacking phenol red. MCF-7 were grown in EMEM with 10% FBS and 1% penicillin-streptomycin (P/S). T47D were cultured in MEM with 10% FBS and 1% P/S. TYS and TDG cells were grown in MEM supplemented with 10% CD-FBS and 1% P/S. HCT-116 and MDA-MB-231 cells were cultured in RPMI-1640 supplemented with 10% FBS and 1% P/S. MDA-MB-436 cells were cultured in DMEM supplemented with 10% FBS and 1% P/S. HT-29 were cultured in McCoy's media supplemented with 10% FBS and 1% P/S. All cell lines were used directly from ATCC stocks and/or have been further authenticated using PowerPlex16HS Assay (Promega) as described previously.^54 In short, >1 million cells were harvested and lysed using the cell lysis buffer (50 mM Tris, 50 mM EDTA, 25 mM sucrose, 100 mM NaCl, 1% SDS, pH 8). DNA extraction and short tandem repeats (STRs) profiling for each cell line were carried out at the University of Arizona Genetics Core (UAGC). Autosomal STR profiles were compared to reference databases such as ATCC, DSMZ, and JCRB.
# (§2) Alamar Blue Fluorescence for Anticancer Activity (IC50). 2,000-15,000 cells per well were seeded a 96-well plate. Cells were allowed to adhere before DMSO stock solutions of test compounds were added to each well with a final concentration of DMSO in each well=1%; final volume: 100 μL. At the end of the desired incubation time (e.g., 24 or 72 hours), media in each well was aspirated and new fresh media (no compound, 100 μL) was added. Alamar blue solution (4 mg resazurin per 40 mL PBS) was then added (10 μL). After 2-6 hours incubation, each well's fluorescence (λexcit.=555 nm, λemission.=585 nm) was measured using a SpectraMax M3 plate reader (Molecular Devices). Percent dead was determined by comparison to a 100% dead control: 100 μM raptinal treated cells. Dose dependent curves and IC50 were calculated using Origin Pro V10.
# HT-29 = assay: Alamar blue fluorescence viability (IC50), HT-29; type: cell-based; settings: for IC50: Homo sapiens
# Experimental: as §1, §2
# T47D-ERaY537S (TYS) = assay: Alamar blue fluorescence viability (IC50), TYS; type: cell-based; settings: 24 h, read-out: IC50 24 hr (μM)
# Experimental: as §1, with “DNA extraction and short tandem repeats (STRs) profiling for each cell line were carried out at the University of Arizona Genetics Core (UAGC). Autosomal STR profiles were compared to reference databases such as ATCC, DSMZ, and JCRB.” left out
# (§3) Alamar Blue Fluorescence for Anticancer Activity (IC50). […] After 2-6 hours incubation, each well's fluorescence (λexcit.=555 nm, λemission.=585 nm) was measured using a SpectraMax M3 plate reader (Molecular Devices). Percent dead was determined by comparison to a 100% dead control: 100 μM raptinal treated cells. Dose dependent curves and IC50 were calculated using Origin Pro V10.
# T47D-ERαD538G (TDG) = assay: Alamar blue fluorescence viability (IC50), TDG; type: cell-based; settings: 24 h, read-out: IC50 24 hr (μM)
# Experimental: as §1, with “DNA extraction and short tandem repeats (STRs) profiling for each cell line were carried out at the University of Arizona Genetics Core (UAGC). Autosomal STR profiles were compared to reference databases such as ATCC, DSMZ, and JCRB.” left out
# as §3
# [1] = Pharmacokinetic (PK) studies in mice; type: in vivo
# Experimental: Pharmacokinetic (PK) Studies. […] Mice were then sacrificed in cohorts of 3 at time points (#, #, #). Blood was collected, centrifuged, and plasma separated for quantification of test compound utilizing LC-MS/MS (UIUC Metabolomics Center, Urbana, IL.). Determined compound concentration was then analyzed using non-linear regression programing (WinNonlin) and pharmacokinetic parameters estimated.
# [2] = test system: CD Sprague Dawley IGS rats; assay: Maximum tolerated dose (MTD) in rats; type: in vivo; settings: Rat, I.V.
# Source text: (§4) Maximum Tolerated Dose (MTD) Experiments in Mice and Rats. […] Rodents were monitored for signs of distress, lethargy, neurotoxicity, and so forth for multiple days after compound administration. […] The MTD was defined as the maximum dose in which any acute side effects observed were tolerated and no lethality observed.
# [3] = Maximum tolerated dose (MTD) in rats; type: in vivo; settings: Sprague Dawley, in vivo, iv; Rat, I.V., single dose; read-out: MTD
# Source text: as §4
# ERα− cancer cell lines = assay: Selectivity of cell killing, ERα+ versus ERα− cancer cell lines; type: cell-based
# Experimental: as §1, §2
# MCF-7 cells = assay: Alamar blue fluorescence viability (IC50), MCF-7; type: cell-based; settings: Homo sapiens
# Experimental: as §1, §2
# CD-1 mice = assay: Maximum tolerated dose (MTD) in mice; type: in vivo
# Source text: as §4
# [4] = Maximum tolerated dose (MTD) in mice; type: in vivo; settings: female, CD-1, in vivo, Mouse, single dose, read-out: MTD
# Source text: as §4
# T47D = assay: Alamar blue fluorescence viability (IC50), T47D; type: cell-based; settings: Homo sapiens, 24 h, read-out: IC50 24 hr (μM)
# Experimental: as §1, with “DNA extraction and short tandem repeats (STRs) profiling for each cell line were carried out at the University of Arizona Genetics Core (UAGC). Autosomal STR profiles were compared to reference databases such as ATCC, DSMZ, and JCRB.” left out
# as §3
# MCF-7 tumors = assay: MCF-7 orthotopic tumor model; type: in vivo, mice
# Experimental: MCF-7 Orthotopic Tumor Model. Nu/J ovariectomized mice (Jackson's lab) were supplemented with a 60-day E2 pellet (0.36 mg, Innovative Research of America) 2-3 days prior to tumor cell inoculation. MCF-7 cells (5×10^6, in 1:1 HBSS:matrigel) were inoculated into the mammary fat pad and allowed to establish and tumors grown to ˜300-400 mm^3 (˜21-28 days to establish). […] Tumor size was measured by caliper, and mouse weights were recorded.
# MDA-MB-436 = assay: Alamar blue fluorescence viability (IC50), MDA-MB-436; type: cell-based; settings: for IC50: Homo sapiens
# Experimental: as §1, §2
# [5] = female, CD-1, mouse, in vivo, iv, I.V. 20 mg/kg
smiles,measurement,setting,value
"O=C1Nc2c(C(F)(F)F)cccc2[C@@]1(c1ccc(O)cc1)N1CCC(F)(F)CC1 (single isomer, unassigned) [ErSO-DFP]",Fold Change,MDA-MB-231; Average Fold Change between 24/72 hr IC50 values for MCF-7 and MDA-MB-231,1882
same,IC50,"MDA-MB-231; MDA-MB-231, 24 h, read-out: IC50 24 hr (μM)",55 ± 5 µM
same,IC50,"MDA-MB-231; MDA-MB-231, 72 h, read-out: IC50 72 hr (μM)",32 ± 4 µM
same,Fold Change,HT-29; Average Fold Change between 24/72 hr IC50 values for MCF-7 and HT-29,1588
same,IC50,"HT-29; HT-29, 24 h, read-out: IC50 24 hr (μM)",33 ± 4 µM
same,IC50,"HT-29; HT-29, 72 h, read-out: IC50 72 hr (μM)",27 ± 4 µM
same,IC50,T47D-ERaY537S (TYS),0.007 ± 0.001 µM
same,IC50,T47D-ERαD538G (TDG),0.009 ± 0.001 µM
same,AUC ratio ErSO-DFP:ErSO,[1]; I.V. 20 mg/kg,0.6
same,CL ratio ErSO-DFP:ErSO,[1]; I.V. 20 mg/kg,1.6
same,Cmax ratio ErSO-DFP:ErSO,[1]; I.V. 20 mg/kg,1.9
same,MRT ratio ErSO-DFP:ErSO,[1]; I.V. 20 mg/kg,0.2
same,Vss ratio ErSO-DFP:ErSO,[1]; I.V. 20 mg/kg,0.3
same,AUC as % of the ErSO value,"[1]; I.V., head-to-head",~60%
same,AUC,[1]; [5],6370 ng·h/mL
same,Cmax,[1]; [5],14700 ng/mL
same,MRT,[1]; [5],52.8 min
same,clearance,[1]; [5],52 mL/min/kg
same,Vd,"[1]; female, CD-1, mouse, in vivo, iv, I.V. 20 mg/kg, read-out: Vss",2.75 L/kg
same,bioavailability,"[1]; female, CD-1, mouse, in vivo, po, read-out: oral availability F %",6%
same,Fold Increase Rel. to ErSO (MTD),[2],3.3-5
same,MTD,[2]; single dose,>50 mg/kg
same,MTD,[3],> 50 mg/kg
same,average fold difference between IC50 values of ERα+ and ERα− cancer cell lines,ERα− cancer cell lines; measured at both 24 and 72 hours,> 2750 fold
same,IC50,ERα− cancer cell lines; read-out: IC50 in ERα− cell lines,> 25 µM
same,IC50,"MCF-7 cells; MCF7, 24 h, read-out: IC50 24 hr (μM)",0.017 ± 0.002 µM
same,IC50,"MCF-7 cells; MCF7, 72 h, read-out: IC50 72 hr (μM)",0.017 ± 0.001 µM
same,IC50,"MCF-7 cells; MCF7, read-out: pIC50 (converted)",0.017 µM
same,Fold Increase Rel. to ErSO (MTD),"CD-1 mice; Mouse, I.V.",4.8
same,fold increase in tolerability relative to ErSO,"CD-1 mice; both mice and rats, administered intravenously",~5 fold
same,MTD,"[4]; iv, I.V.",95 mg/kg
same,MTD,"[4]; po, P.O.",> 200 mg/kg
same,IC50,T47D,0.016 ± 0.002 µM
same,mouse weight change during MCF-7 study,"MCF-7 tumors; I.V. 5 mg/kg once-a-week, three total doses",no significant weight change
same,antitumor effect on MCF-7 tumors,"MCF-7 tumors; I.V. 5 mg/kg once-a-week, three total doses, tumors >300 mm^3",profound regression of MCF-7 tumors
same,increase in therapeutic index (TI) relative to ErSO,MCF-7 tumors; from efficacy data and head-to-head MTD studies,≥ 5 fold
same,Fold Change,MDA-MB-436; Average Fold Change between 24/72 hr IC50 values for MCF-7 and MDA-MB-436,3235
same,IC50,"MDA-MB-436; MDA-MB-436, 24 h, read-out: IC50 24 hr (μM)",64 ± 3 µM
same,IC50,"MDA-MB-436; MDA-MB-436, 72 h, read-out: IC50 72 hr (μM)",55 ± 9 µM
